Experimental data as given in ChEMBL document CHEMBL1142978, “Probing the anticancer activity of nucleoside analogues: a QSAR model approach using an internally consistent training set” (J Med Chem, 2007).
Where a SMILES comes first, the peptide text is derived from it.

assay: Cytotoxicity against mouse L1210/0 cells after 48 hrs; type: cell-based; settings: Mus musculus, L1210/0, 48 h

SMILES	IC50 [µM]
O=c1[nH]cnc2c1nnn2[C@@H]1C[C@H](CO)[C@@H](CO)[C@H]1CO	> 200
C[C@H](O)C1CC(CCn2cnc3c(=O)[nH]cnc32)C1(C)C (stereo partly specified)	> 200
Nc1ncnc2c1ncn2C[C@@H]1C[C@H](O)c2ccccc21	> 200
Nc1nc(NC2CC2)c2ncn(CCOCP(=O)(O)O)c2n1	10.2
CCC#Cc1cn([C@@H]2O[C@H](CO)[C@@H](O)[C@@H]2O)c(=O)[nH]c1=O	> 200
CC1(C)[C@@H](CCCO)C[C@H]1n1nnc2c(Cl)nc(N)nc21	> 200
O=c1[nH]c(=O)n(COCCO)cc1F	> 200
CC1(C)[C@@H](CO)CC[C@@]1(C)Cn1nnc2c(=O)[nH]cnc21	> 200
Nc1ncnc2c1ncn2[C@@H]1O[C@H](/C=C/F)[C@H](O)[C@@H]1O	> 200
O=c1[nH]c(=O)n(COCCO)cc1/C=C/Br	> 200
CC1(C)[C@@H](Cn2ccc(=O)[nH]c2=O)CC[C@@]1(C)CO	> 200
O=C1C=CN(COCCO)C(=O)C1	> 200
Nc1ncnc2c1ncn2C[C@@H]1CCC[C@H]1CO	> 200
CCCC#Cc1cn([C@H]2C[C@H](O)[C@@H](CO)O2)c(=O)[nH]c1=O	> 200
O=C1NCN([C@@H]2O[C@H](COP3OCCC(F)(F)O3)[C@@H](O)C2=O)C=C1F (stereo partly specified)	0.01
Nc1nc2c(ncn2COCCO)c(=O)[nH]1 [ACYCLOVIR]	57.7
CC1(C)[C@@H](CO)CC[C@@]1(C)Cn1cc(I)c(=O)[nH]c1=O	> 200
Nc1nc(=O)n(COCCO)cc1[N+](=O)[O-]	> 200
CC1(C)C(CO)CC1Cn1nnc2c(=O)[nH]c(N)nc21 (stereo unspecified)	> 200
CCCCC#Cc1cn([C@H]2C[C@H](O)[C@@H](CO)O2)c(=O)[nH]c1=O	> 200
O=C1O/C(=C\Cn2ccc(=O)[nH]c2=O)C(O)=C1O	> 200
OCCOCn1cnc2c(S)nc(F)nc21	170

SMILES	IC50 [µM]
O=c1ccn([C@@H]2O[C@H](CO)[C@H](F)[C@@H]2O)c(=O)[nH]1	> 200
COc1c(C)c(C)c(OC)c(-c2cn([C@H]3C[C@H](O)[C@@H](CO)O3)c(=O)[nH]c2=O)c1C	> 200
C[C@H](O)C1CC(Cn2nnc3c(=O)[nH]cnc32)C1(C)C (stereo partly specified)	> 200
O=c1[nH]cnc2c1ncn2CC1CCC(CO)C1 (stereo unspecified)	> 200
CC(C)(C)C#Cc1cn([C@H]2C[C@H](O)[C@@H](CO)O2)c(=O)[nH]c1=O	> 200
O=C1O/C(=C\Cn2cc(Br)c(=O)[nH]c2=O)C(OCc2ccccc2)=C1OCc1ccccc1	7.5
Nc1ncnc2c1ncn2C1OC(/C=N/O)CC1O (stereo unspecified)	> 200
C#COc1cn([C@H]2C[C@H](O)[C@@H](CO)O2)c(=O)[nH]c1=O	> 200
CC1(C)C(CO)CC1Cn1cnc2c(N)nc(N)nc21 (stereo unspecified)	> 200
O=c1ccn(C[C@@H]2C[C@H](CO)c3ccccc32)c(=O)[nH]1	> 200
CCCc1cn([C@H]2C[C@H](O)[C@@H](CO)O2)c(=O)[nH]c1=O	> 200
Nc1ncnc2c1ncn2[C@@H]1O[C@H](/C=C\Cl)[C@H](O)[C@@H]1O	143
O=c1[nH]c(=O)n([C@H]2C[C@H](O)[C@@H](CO)O2)cc1I [IDOXURIDINE]	173
O=c1ccn([C@@H]2CCC[C@H]2CO)c(=O)[nH]1	> 200
CNc1nc2c(=O)[nH]c(N)nc2n1COCCO	> 200
O=C(/C=C/c1cc(=O)[nH]c(=O)n1COCCO)c1ccccc1	43.3
[N-]=[N+]=NCc1cn([C@H]2C[C@H](O)[C@@H](CO)O2)c(=O)[nH]c1=O	124
CCO/N=C\C1OC(n2cnc3c(N)ncnc32)C(O)C1O (stereo unspecified)	> 200
CC(C)Nc1ncnc2c1ncn2C1C[C@@H](CO)[C@@H](CO)C1 (stereo partly specified)	> 200
O=C1OC(=CCn2cnc3c(-n4cccc4)ncnc32)C(OCc2ccccc2)=C1OCc1ccccc1	110
O=c1[nH]c(=O)n([C@@H]2CCC[C@H]2CO)cc1I	> 200
COc1cc(-c2cn([C@H]3C[C@H](O)[C@@H](CO)O3)c(=O)[nH]c2=O)c(OC)c(C)c1C	> 200

SMILES	IC50 [µM]
C[C@H](O)C1CC(CCn2nnc3c(N)ncnc32)C1(C)C (stereo partly specified)	> 200
CC1(C)C(CO)CC1Cn1nnc2c(Cl)nc(N)nc21 (stereo unspecified)	> 200
C=CC#Cc1cn([C@H]2C[C@H](O)[C@@H](CO)O2)c(=O)[nH]c1=O	> 200
CCCC/C=C\c1cn([C@H]2C[C@H](O)[C@@H](CO)O2)c(=O)[nH]c1=O	> 200
COC1=C(OC)/C(=C/C(n2cnc3c(N)ncnc32)P(O)(=S)OC)OC1=O (stereo unspecified)	> 200
CC(O)Cn1cnc2c(S)nc(F)nc21 (stereo unspecified)	> 200
Nc1ncnc2c1ncn2[C@@H]1O[C@H](C=O)C[C@@H]1O	> 200
CCCCCC(=O)O[C@@H]1[C@H](OC(=O)CCCCC)CO[C@@H](OC)[C@@]1(F)n1ccc(=O)[nH]c1=O	40
O=C1O/C(=C\Cn2cnc3c(Cl)ncnc32)C(OCc2ccccc2)=C1OCc1ccccc1	11.6
Cc1ccc(S(=O)(=O)/C=C/[C@H]2O[C@@H](n3cnc4c(N)ncnc43)[C@@H](O)[C@H]2O)cc1	54
COc1ccc(-c2ncnc3c2ncn3C[C@@H]2C[C@H](CO)c3ccccc32)cc1	17.6
CCC#Cc1cn([C@H]2C[C@H](O)[C@@H](CO)O2)c(=O)[nH]c1=O	> 200
OC[C@H]1C[C@@H](Cn2cnc3c(-c4ccccc4)ncnc32)c2ccccc21	28.1
COc1ccc(C(=O)/C=C/c2cc(=O)[nH]c(=O)n2COCCO)cc1	33.5
CCc1cn([C@H]2C[C@H](O)[C@@H](CO)O2)c(=O)[nH]c1=O [EDOXUDINE]	33.2
Nc1nc(O)c2ncn([C@H]3CCCC[C@H]3CO)c2n1	> 200
CCCCCCc1cn([C@H]2C[C@H](O)[C@@H](CO)O2)c(=O)[nH]c1=O	> 200
Nc1ccn(C[C@@H]2C[C@H](CO)c3ccccc32)c(=O)n1	> 200
Nc1ccn(COCCO)c(=O)n1	> 200
O=c1[nH]c(=O)n([C@H]2C[C@H](O)[C@@H](CO)O2)cc1/C=C/Cl	> 200
O=C1OC(C(O)Cn2cc(C(F)(F)F)c(=O)[nH]c2=O)C(OCc2ccccc2)=C1OCc1ccccc1 (stereo unspecified)	50.1
CC(=O)OCCOCn1cnc2c(Cl)nc(Cl)nc21	39.3

SMILES	IC50 [µM]
O=c1[nH]c(=O)n(C[C@H]2CCC[C@H]2CO)cc1I	> 200
CN(C)c1nc2c(=O)[nH]c(N)nc2n1COCCO	> 200
CC(=O)OC(C)Cn1cnc2c(N)nc(I)nc21 (stereo unspecified)	> 200
Cc1ccc(C(=O)/C=C/c2cc(=O)[nH]c(=O)n2COCCO)cc1	27.9
Nc1nc2c(nc(N)n2COCCO)c(=O)[nH]1	> 200
O=C1O/C(=C\Cn2cc(Cl)c(=O)[nH]c2=O)C(OCc2ccccc2)=C1OCc1ccccc1	12.2
CC(=O)OC(C)Cn1cnc2c(Cl)nc(I)nc21 (stereo unspecified)	13
O=c1ccn(C[C@@H]2CCC[C@H]2CO)c(=O)[nH]1	> 200
Cc1ccc(-c2ncnc3c2ncn3C[C@@H]2C[C@H](CO)c3ccccc32)cc1	15.4
Nc1nc(N)c2ncn(CCOCP(=O)(O)O)c2n1 [PMEDAP]	1.73
O=C1OC(C(O)Cn2cc(F)c(=O)[nH]c2=O)C(OCc2ccccc2)=C1OCc1ccccc1 (stereo unspecified)	140
O=C1O/C(=C\Cn2ccc(=O)[nH]c2=O)C(Cc2ccccc2)=C1O	> 200
Nc1nc(N)c2ncn([C@H]3CCCC[C@H]3CO)c2n1	> 200
CC1(C)C(CO)CC1Cn1cnc2c(=O)[nH]c(N)nc21 (stereo unspecified)	> 200
CC(=O)OCCOCn1cnc2c(Cl)ncnc21	163
OC[C@H]1C[C@@H](Cn2cnc3c(O)ncnc32)c2ccccc21	> 200
O=Cc1cn([C@H]2C[C@H](O)[C@@H](CO)O2)c(=O)[nH]c1=O	1.07
Nc1ccn([C@@H]2O[C@H](CO)[C@H](F)[C@@H]2O)c(=O)n1	159
O=C1O/C(=C/Cn2cnc3ncnc(Cl)c32)C(OCc2ccccc2)=C1OCc1ccccc1	4.1
O=c1[nH]c(=O)n(COCCO)cc1Cl	> 200
CN(C)c1ncnc2c1ncn2COCCO	> 200
C[S+]([O-])c1cn([C@H]2C[C@H](O)[C@@H](CO)O2)c(=O)[nH]c1=O (stereo partly specified)	> 200

SMILES	IC50 [µM]
COc1c(C)c(-c2cn([C@H]3C[C@H](O)[C@@H](CO)O3)c(=O)[nH]c2=O)c(OC)c2ccccc12	> 200
COc1ccccc1C(=O)/C=C/c1cc(=O)[nH]c(=O)n1COCCO	15.2
O=c1[nH]cnc2c1ncn2[C@@H]1C[C@@H]2COC[C@H]2[C@H]1CO	> 200
O=C1O/C(=C\Cn2cc(C(F)(F)F)c(=O)[nH]c2=O)C(O)=C1O	> 200
COc1nc(I)nc2c1ncn2COCCO	> 200
CC(C)C[C@H](NC(=O)[C@@H]1CCCN1)C(=O)NCC(N)=O (H-Pro-Leu-Gly-NH2)	> 200
CC(=O)OC(C)Cn1cnc2c(Cl)nc(F)nc21 (stereo unspecified)	37
O=C1O/C(=C\Cn2cc(C(F)(F)F)c(=O)[nH]c2=O)C(OCc2ccccc2)=C1OCc1ccccc1	2
CC1(C)[C@@H](CCCO)C[C@H]1n1nnc2c(=O)[nH]c(N)nc21	> 200
CC(=O)OC(C)Cn1cnc2c(=S)[nH]c(N)nc21 (stereo unspecified)	128
O=c1[nH]cnc2c1ncn2C1CC(CO)C(CO)C1 (stereo unspecified)	> 200
Cc1ccc(C(=O)/C=C/c2cc(O)nc(O)n2)cc1	182
O=C1NCN([C@@H]2O[C@H](COP3OCCC(O)O3)[C@@H](O)C2=O)C=C1F (stereo partly specified)	0.84
Nc1nc(Cl)c2nnn([C@H]3CCCC[C@H]3CO)c2n1	95.5
COC1=C(OC)/C(=C/Cn2cnc3c(Cl)ncnc32)OC1=O	14
COC1=C(OC)C(O)(CCn2cnc3c(Cl)ncnc32)OC1=O (stereo unspecified)	> 200
CSc1cn([C@H]2C[C@H](O)[C@@H](CO)O2)c(=O)[nH]c1=O	> 200
Nc1ncnc2c1nnn2C[C@H]1CCC[C@H]1CO	> 200
CC(O)Cn1cnc2c(Cl)nc(I)nc21 (stereo unspecified)	> 200
CO[C@@H]1OC[C@@H](OC(C)=O)[C@@H](OC(C)=O)[C@]1(F)n1ccc(=O)[nH]c1=O	55
CC1(C)[C@@H](CO)CC[C@@]1(C)Cn1cnc2c(N)ncnc21	> 200

same assay, conditions: l1210/0

SMILES	IC50 [µM]
Nc1ncnc2c1ncn2[C@@H]1O[C@H](/C=N/O)[C@@H](O)[C@H]1O (stereo in doubt; 82)	37.5
Nc1ncnc2c1ncn2[C@@H]1O[C@H](/C=N/O)[C@@H](O)[C@H]1O (stereo in doubt; 75)	6.47
